Test results reported in PubChem BioAssay AID1259418 (Broad Institute, 2018).
Several values for one entry are separate records, joined by “and”; a condition that tells them apart may be missing. Equal values may be shown once. Records with an inconclusive call do not appear. Activity calls are given as the source filed them.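 The calls were made as follows: active = fitted half-maximal concentration of signal decrease at or below twice the sample's top tested concentration; inconclusive = flat curve between -70 and -30 percent, or poor fit; inactive = flat within 30 percent, signal rise, or potency above limit.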

biological target: T. gondii ME49Luc in IFN-y HeLa, luciferase, 72 h; assay: inhibitors of Toxoplasma growth in IFN-γ-primed HeLa – cell-based, ME49Luc, luciferase, 72 h, dose response (AID 1259418)

SMILES	AC50
COc1ccc(-c2nc(NCCCN3CCN(C)CC3)c3ccccc3n2)cc1	14.4 µM
COc1cccc(-c2ccc3c(c2)[C@@H]2[C@@H](CCN2S(=O)(=O)c2ccccc2F)[C@@H](CO)N3)c1	25.4 µM
CN1C(=O)c2cc(NC(=O)Cc3cccs3)ccc2OC[C@@H]2O[C@H](CC(=O)NCC3CCCCC3)CC[C@@H]21	> 39 µM (inactive)
COc1cc(Nc2nc(SCc3ccc(F)cc3)nc3ccccc23)cc(OC)c1	13.2 µM
CS(=O)(=O)N1CCC(C(=O)NCCc2csc(-c3cccs3)n2)CC1	> 39 µM (inactive)
CCc1ccc(S(=O)(=O)N2CCC3(CC2)NCCN=C3NCc2ccc(F)cc2)cc1	6.64 µM
CN(C)C1CCN(Cc2cccc(C#N)c2)C(C(=O)O)C1 (stereo not given)	9.32 µM
O=C(NCCc1csc(-c2ccccc2)n1)C1CCN(C(=O)c2ccccc2Cl)CC1	25.8 µM
O=S(=O)(c1cccs1)N1CCCCN2[C@H](C1)[C@@H](c1ccc(/C=C/c3ccccc3)cc1)[C@@H]2CO	15.3 µM
CN1C(=O)c2cc(NC(=O)c3cccc(F)c3)ccc2OC[C@H]2O[C@@H](CC(=O)NCC3CCCCC3)CC[C@@H]21	21.5 µM
COc1ccc(-c2nc(NC(C)C)c3ccccc3n2)cc1	> 39 µM (inactive)
COc1ccccc1NC(=O)N1CCCCN2[C@H](CO)[C@@H](c3ccc(-c4cccc(C#N)c4)cc3)[C@@H]2C1	21.5 µM
COc1ccc(N(Cc2nc(-c3ccccc3OC)oc2C)S(=O)(=O)c2ccc(C)cc2)cc1	19.3 µM
Cc1cc(C2CCCN2C(=O)Cn2nc(C(F)(F)F)c3c2CCCC3)no1 (stereo not given)	34.3 µM
CCc1cc(C(=O)Nc2ccc(C)cc2-c2cc(C)[nH]n2)c2c(C)noc2n1	11.8 µM
COc1ccc2c(c1)NC1(CCN(C(=O)C3CCCCC3)CC1)c1cccn1-2	> 39 µM (inactive)
Cc1ccccc1S(=O)(=O)N1CCC(C(=O)NCCc2csc(-c3ccccc3)n2)CC1	25.6 µM
O=C(c1ccco1)N1CCC2(CC1)Nc1ccc(Cl)cc1-n1cccc12	32.1 µM
Cc1nc(OCC(=O)Nc2ccc(Cl)c(Cl)c2)c2ccccc2n1	> 39 µM (inactive)
C[C@@H]1CN([C@@H](C)CO)C(=O)c2cccc(NC(=O)NC3CCCCC3)c2O[C@@H]1CN(C)Cc1ccc(C(F)(F)F)cc1	25.7 µM
CCOc1ccc(-c2nc(CN3CCN(C(=O)Nc4ccc(F)cc4)CC3)c(C)o2)cc1	12.8 µM
CCc1nc(OCC(=O)NCc2ccccc2)c2ccccc2n1	21.9 µM
COc1ccc(-c2nc(Nc3ccc(CN4CCCCC4)cc3)c3ccccc3n2)cc1	12 µM

SMILES	AC50
O=C(COc1ccc(F)cc1)N1CCC2(CC1)Nc1ccc(Cl)cc1-n1cccc12	17 µM
CCOc1ccccc1-c1nc(CN(c2ccccc2OC)S(=O)(=O)c2ccccc2)c(C)o1	7.68 µM
COc1ccc(CN2C[C@@H]3C[C@H](C(=O)Nc4ccccc4)[C@@H](C2)O3)cc1	> 39 µM (inactive)
Fc1ccccc1CSc1nc(NCc2ccccc2)c2ccccc2n1	17.9 µM
Cc1ccccc1S(=O)(=O)N1CCCCN2[C@H](C1)[C@@H](c1ccc(C#CCN(C)C)cc1)[C@@H]2CO	20.9 µM
COc1cc(NC(=O)Nc2ccc(-c3nc(-c4cc(C)ccc4C)co3)cc2)cc(OC)c1	9.46 µM
CC(C)Cc1ccc(S(=O)(=O)N2CCC3(CC2)NCCN=C3NCc2ccc(F)cc2)cc1	6.29 µM
COc1ccc(N(Cc2nc(-c3ccc(OC)c(OC)c3)oc2C)S(=O)(=O)c2ccccc2)cc1	9.25 µM
COc1ccccc1NC(=O)N1C[C@H](O)COC[C@@H]2O[C@@H](CC(=O)N3CCC(Cc4ccccc4)CC3)CC[C@H]21	22.9 µM and > 39 µM (inactive)
O=C(CC1N=C2c3ccccc3N=C(SCc3ccc(F)cc3)N2C1=O)NCc1cccs1 (stereo not given)	35 µM
COc1ccc(S(=O)(=O)N2CCC(C(=O)NCCc3csc(-c4ccccc4)n3)CC2)cc1	> 20 µM (inactive)
c1ccc(-c2noc(-c3ccc(N4CCC(N5CCCCC5)CC4)nc3)n2)cc1	18.6 µM
O=C(CC1N=C2c3ccccc3N=C(SCc3ccccc3F)N2C1=O)NCCc1ccccc1 (stereo not given)	> 39 µM (inactive)
O=C(Nc1cccc(F)c1)N1CCCCN2[C@@H](CO)[C@@H](c3ccc(C#Cc4cccnc4)cc3)[C@@H]2C1	> 42 µM (inactive)
Cc1ccc2c(c1C)-n1cccc1C1(CCN(C(=O)c3ccccc3F)CC1)N2	> 39 µM (inactive)
O=C(Nc1ccccc1)c1ncn2c1CN(CC1CC1)S(=O)(=O)c1ccccc1-2	32.6 µM
O=S(=O)(c1ccc(Cl)s1)N1CCC2(CC1)NCCN=C2NCc1ccc2c(c1)OCO2	34.8 µM
CC[C@H]1CN2CCC1C[C@@H]2[C@H](O)c1ccnc2ccc(OC)cc12 (stereo not given in full)	20 µM
CCCNC(=O)C[C@H]1CC[C@H]2[C@@H](COC[C@@H](O)CN2C(=O)Nc2ccc(Cl)c(Cl)c2)O1	25.9 µM
COc1ccc(S(=O)(=O)N2CCCCN3[C@H](CO)[C@H](c4ccc(C#CCC(C)C)cc4)[C@H]3C2)cc1	5.52 µM
O=S(=O)(c1ccccc1)N1CCc2c([nH]c3ccccc23)C1c1ccc(F)c(F)c1 (stereo not given)	13.9 µM
COc1cccc(C(=O)Nc2ccc3c(c2)C(=O)N(C)[C@@H]2CC[C@H](CC(=O)N[C@H](C)c4ccccc4)O[C@@H]2CO3)c1	19.4 µM
CCC(=O)N1CC[C@@H]2[C@H]1c1cc(-c3ccc(C#N)cc3)ccc1N(C)[C@H]2CO	> 42 µM (inactive)

SMILES	AC50
N#Cc1cccc(-c2ccc(C3[C@@H]4CN(C(=O)Nc5ccc(C(F)(F)F)cc5)C[C@H]3N4)cc2)c1 (stereo not given in full)	5.28 µM
COc1ccccc1-c1ccc([C@@H]2[C@H](CO)N3CCCCN(C(=O)c4cccnc4)C[C@@H]23)cc1	17.2 µM
CN(C)C(=O)c1cccc(-c2ccc3c(c2)[C@@H]2[C@@H](CCN2C(=O)Cc2ccccc2)[C@@H](CO)N3)c1	17.6 µM
Clc1cncc(OC[C@H]2CO[C@@H]3CN(Cc4cccs4)C[C@@H]23)c1	15.3 µM
CN(c1ccc(F)cc1)c1nc(-c2ccc(Cl)cc2)nc2ccccc12	13.9 µM
Cc1ccc(C)c(S(=O)(=O)N2CCC3(CC2)NCCN=C3NCc2ccccc2Cl)c1	5.36 µM
Cc1ccccc1N(Cc1nc(-c2ccccc2)oc1C)S(=O)(=O)c1cccs1	> 39 µM (inactive)
Cc1cc(C(C)(C)CC(C)(C)C)ccc1OCCOCC[N+](C)(C)Cc1ccccc1	14.9 µM
CCOc1ccc(-c2nc(CN3CCN(C(=O)Nc4cccc(Cl)c4)CC3)c(C)o2)cc1	17.1 µM
CCOc1ccc(-c2nc(CN(c3ccccc3C)S(=O)(=O)c3cccs3)c(C)o2)cc1	18.8 µM
COc1cccc(-c2nc(C)c(-c3ccc(SCc4ccccc4)nn3)s2)c1	12.7 µM
CCCC#Cc1ccc([C@@H]2[C@H]3CN(C(=O)Nc4cccc(F)c4)CC(=O)N3[C@H]2CO)cc1	17.4 µM
Cc1ccccc1-c1ccc(C2[C@@H]3CN(C(=O)c4ccc(F)cc4)C[C@H]2N3)cc1 (stereo not given in full)	19 µM
Cc1ccc(C(=O)N2CCC3(CC2)Nc2cc(F)ccc2-n2cccc23)cc1C	> 39 µM (inactive)
COc1ccccc1C(=O)Nc1ccc(-c2nc(-c3ccccc3)co2)cc1	33.3 µM
CCN1C(=O)CCc2cc(NC(=O)Cc3cccc(OC)c3)ccc21	23 µM
O=C(c1cccc(F)c1)N1CCCCN2[C@H](C1)[C@H](c1ccc(C#CC3(O)CCCC3)cc1)[C@@H]2CO	9.01 µM
OC[C@H]1Nc2ccc(-c3cccc(F)c3)cc2[C@@H]2[C@H]1CCN2Cc1ccc(F)cc1	20 µM
O=C(CCCCCNc1nc(=S)[nH]c2ccccc12)N1CCC(O)(c2cccc(C(F)(F)F)c2)CC1	> 39 µM (inactive)
COCC(=O)N(C[C@H]1N[C@H](CO)[C@@H]1c1ccc(C2=CCCC2)cc1)C1CCCC1	16.3 µM
Cc1ccc(-c2nc(CN3CCN(C(=O)Nc4ccc(C)c(Cl)c4)CC3)c(C)o2)cc1	> 39 µM (inactive)
COc1ccc(-c2nc(N3CCC(N4CCCCC4)CC3)c3ccccc3n2)cc1	10.6 µM
Cc1ccc(CNC2=NCCNC23CCN(S(=O)(=O)c2ccc(CC(C)C)cc2)CC3)cc1	7.71 µM

SMILES	AC50
Cc1ccc(S(=O)(=O)Nc2ccc3c(c2)C(=O)N([C@@H](C)CO)C[C@H](C)[C@H](CN(C)Cc2ccc(C(F)(F)F)cc2)O3)cc1	18.2 µM
COc1ccc(-c2nc(CN(c3ccccc3)S(=O)(=O)c3cccs3)c(C)o2)cc1OC	6.84 µM
O=C(Nc1ccccc1)N1CC2CN(Cc3ccc(C(F)(F)F)cc3)C2C1 (stereo not given)	36.6 µM
CN1c2ccc(-c3ccccc3)cc2[C@H]2[C@H](CCN2C(=O)CC2CC2)[C@@H]1CO	18.8 µM
C1=CC[C@H]2CN(c3ncnc4[nH]ccc34)C[C@H]2C1	13.1 µM
CCOc1ccc(N(Cc2nc(-c3ccc(C)cc3)oc2C)S(=O)(=O)c2ccccc2)cc1	> 39 µM (inactive)
COc1ccc(NC(=O)N2CCCCN3[C@H](CO)[C@@H](c4ccc(-c5ccccc5F)cc4)[C@@H]3C2)cc1	29.6 µM
CCc1ccc(S(=O)(=O)N2CCC3(CC2)NCCN=C3NCc2cc(F)cc(F)c2)cc1	6.6 µM
COc1ccc(CNC2=NCCNC23CCN(S(=O)(=O)c2ccc(C)c(C)c2)CC3)cc1	> 39 µM (inactive)
O=S(=O)(c1cccs1)N1CCC2(CC1)NCCN=C2NCc1cccc(F)c1	26.1 µM
COc1cccc(S(=O)(=O)N2CCCCN3[C@H](CO)[C@H](c4ccc(-c5ccccc5)cc4)[C@H]3C2)c1	5.11 µM
COCC(=O)N1[C@H](C#N)[C@H](c2ccc(C#Cc3ccccc3F)cc2)[C@@H]1CO	> 39 µM (inactive)
O=C(NC1CCCC1)N1CCCCN2[C@H](CO)[C@H](c3ccc(-c4cccnc4)cc3)[C@H]2C1	24.1 µM
Cc1cccc(S(=O)(=O)N2C[C@H]3[C@@H](c4ccccc42)[C@@H](CO)N3C(=O)c2ccccc2)c1	> 39 µM (inactive)
COc1cccc(-c2nc(C)c(-c3ccc(SCc4cccc(Cl)c4)nn3)s2)c1	11.1 µM
COc1ccc(N(Cc2nc(-c3ccc(C)cc3)oc2C)S(=O)(=O)c2ccc(C)cc2)cc1	13.2 µM
CC1CCCCN1CCNc1nc(-c2ccc(Cl)cc2)nc2ccccc12 (stereo not given)	10.9 µM and 12.7 µM
Cc1ccc2[nH]c(C(=O)NCc3ccncc3)c(NC(=O)c3ccc(F)cc3)c2c1	1.99 µM
O=C(Cc1cccnc1)N1CC(=O)N2[C@H](CO)[C@@H](c3ccc(C4=CCCCC4)cc3)[C@H]2C1	25.3 µM
Cc1oc(-c2cccc(Cl)c2)nc1CN(c1ccccc1)S(=O)(=O)c1ccccc1	6.63 µM
COc1ccc(C#Cc2ccc([C@H]3[C@@H](CO)N4C(=O)CN(C(=O)NC(C)C)C[C@@H]34)cc2)cc1	22.3 µM
